In this experiment the target is T1, Cran1 (Cell cycle-related ATPase and nickase 1) (Saccharolobus islandicus, UniProt F0NG35, E246A).
T1 construct: gene SiRe_0086; full-length, C-terminal His-tag; expressed in Sa. islandicus (ATPase assay) or E. coli BL21(DE3)-RIL; monomer, 55 kDa by gel filtration
Kind of experiment: malachite green phosphate release assay. Type of experiment: biochemical. The following applies: 1 mM ATP, 0.2 uM protein, 5 mM MgCl2, 25 mM Tris-HCl pH 7.4, 100 mM NaCl; 70 C.

T1 sequence (F0NG35 entry or part of it E246A): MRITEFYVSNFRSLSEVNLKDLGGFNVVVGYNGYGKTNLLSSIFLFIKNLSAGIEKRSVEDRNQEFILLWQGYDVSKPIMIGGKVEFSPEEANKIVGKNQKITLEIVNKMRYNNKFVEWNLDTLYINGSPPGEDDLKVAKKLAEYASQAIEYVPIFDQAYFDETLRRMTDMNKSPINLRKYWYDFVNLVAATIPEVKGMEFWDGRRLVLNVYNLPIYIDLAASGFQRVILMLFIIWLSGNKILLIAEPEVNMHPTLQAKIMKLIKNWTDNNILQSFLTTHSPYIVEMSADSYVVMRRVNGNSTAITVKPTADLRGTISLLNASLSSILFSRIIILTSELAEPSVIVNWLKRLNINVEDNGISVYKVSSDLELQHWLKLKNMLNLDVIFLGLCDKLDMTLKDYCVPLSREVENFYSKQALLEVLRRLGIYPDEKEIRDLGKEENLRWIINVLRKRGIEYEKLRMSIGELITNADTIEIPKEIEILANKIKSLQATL

Take `Nc1ncnc2c1ncn2[C@@H]1O[C@H](COP(=O)(O)OP(=O)(O)OP(=O)(O)O)[C@@H](O)[C@H]1O` [ATP]: the “malachite green phosphate release assay” value was “substitution of either of the two residues with alanine had no effect both in vitro”.

The record behind these values is PMC12796447, “Cran1, member of a new class of OLD family ATPases, functions in cell cycle progression in an archaeon” (EMBO Reports, 2025).
